The source of these data is BindingDB's records for doi:10.1016/S0960-894X(00)80229-2 (1992).

A short description of the assay: Agonistic activity at kappa opioid receptor of rabbit vas deferens.
Take `CC(=O)N1CCN(C(=O)Cc2ccc(Cl)c(Cl)c2)C(CN2CC[C@H](O)C2)C1` (stereo partly drawn) [1-[4-Acetyl-2-((S)-3-hydroxy-pyrrolidin-1-ylmethyl)-piperazin-1-yl]-2-(3,4-dichloro-phenyl)-ethanone]: the half-maximal inhibitory concentration (IC50) (in general, the concentration needed to halve the response being measured) turned out to be 0.22 nM.

As for `CC(=O)N1CCN(C(=O)Cc2cc(F)cc(F)c2)C(CN2CC[C@H](O)C2)C1` (stereo partly drawn) [1-[4-Acetyl-2-((S)-3-hydroxy-pyrrolidin-1-ylmethyl)-piperazin-1-yl]-2-(3,5-difluoro-phenyl)-ethanone], the IC50 was 4.6 nM.

The molecule `COc1cccc(CC(=O)N2CCN(C(C)=O)CC2CN2CC[C@H](O)C2)c1` (stereo partly drawn) [1-[4-Acetyl-2-((S)-3-hydroxy-pyrrolidin-1-ylmethyl)-piperazin-1-yl]-2-(3-methoxy-phenyl)-ethanone] came in with an IC50 of 49 nM.

For `CC(=O)N1CCN(C(=O)Cc2cccc([N+](=O)[O-])c2)C(CN2CC[C@H](O)C2)C1` (stereo partly drawn) [1-[4-Acetyl-2-((S)-3-hydroxy-pyrrolidin-1-ylmethyl)-piperazin-1-yl]-2-(3-nitro-phenyl)-ethanone], the IC50 was 14 nM. This IC50 lies about 3.5-fold lower than the previous one.

In the case of `CC(=O)N1CCN(C(=O)Cc2ccc([S+](C)[O-])cc2)C(CN2CC[C@H](O)C2)C1` (stereo partly drawn) [1-[4-Acetyl-2-((S)-3-hydroxy-pyrrolidin-1-ylmethyl)-piperazin-1-yl]-2-(4-methanesulfinyl-phenyl)-ethanone], the IC50 was 140 nM.

As to `CC(=O)N1CCN(C(=O)Cc2ccc(S(C)(=O)=O)cc2)C(CN2CC[C@H](O)C2)C1` (stereo partly drawn) [1-[4-Acetyl-2-((S)-3-hydroxy-pyrrolidin-1-ylmethyl)-piperazin-1-yl]-2-(4-methanesulfonyl-phenyl)-ethanone], the 50% inhibitory concentration (IC50) was found to be 0.9 nM.

The molecule `COc1ccc(CC(=O)N2CCN(C(C)=O)CC2CN2CC[C@H](O)C2)cc1` (stereo partly drawn) [1-[4-Acetyl-2-((S)-3-hydroxy-pyrrolidin-1-ylmethyl)-piperazin-1-yl]-2-(4-methoxy-phenyl)-ethanone] registered an IC50 of 230 nM. Compared with the last molecule, the IC50 is about 260-fold higher.

Turning to `CSc1ccc(CC(=O)N2CCN(C(C)=O)CC2CN2CC[C@H](O)C2)cc1` (stereo partly drawn) [1-[4-Acetyl-2-((S)-3-hydroxy-pyrrolidin-1-ylmethyl)-piperazin-1-yl]-2-(4-methylsulfanyl-phenyl)-ethanone], the IC50 was determined as 37 nM. This IC50 lies about 6.2-fold lower than the previous one.

`CC(=O)N1CCN(C(=O)Cc2ccc([N+](=O)[O-])cc2)C(CN2CC[C@H](O)C2)C1` (stereo partly drawn) [1-[4-Acetyl-2-((S)-3-hydroxy-pyrrolidin-1-ylmethyl)-piperazin-1-yl]-2-(4-nitro-phenyl)-ethanone] came in with an IC50 of 6.3 nM.

In the case of `CC(=O)N1CCN(C(=O)Cc2ccc(C(F)(F)F)cc2)C(CN2CC[C@H](O)C2)C1` (stereo partly drawn) [1-[4-Acetyl-2-((S)-3-hydroxy-pyrrolidin-1-ylmethyl)-piperazin-1-yl]-2-(4-trifluoromethyl-phenyl)-ethanone], the IC50 was 1.5 nM.

The molecule `CC(=O)N1CCN(C(=O)Cc2ccccc2)C(CN2CC[C@H](O)C2)C1` (stereo partly drawn) [1-[4-Acetyl-2-((S)-3-hydroxy-pyrrolidin-1-ylmethyl)-piperazin-1-yl]-2-phenyl-ethanone] displayed an IC50 of 400 nM.

Turning to `COC(=O)N1CCN(C(=O)Cc2ccc(Cl)c(Cl)c2)[C@@H](CN2CCCC2)C1` [4-[2-(3,4-Dichloro-phenyl)-acetyl]-3-pyrrolidin-1-ylmethyl-piperazine-1-carboxylic acid methyl ester], the IC50 was determined as 0.02 nM.
